Reference: patent US20200407717A1, “METHODS OF MODULATING ANTISENSE ACTIVITY” (Ionis Pharmaceuticals, Inc., priority 2018, published 2020)
e = 2'-O-(2-methoxyethyl) (MOE); d = 2'-deoxy (DNA)

Tested on: Malat1 RNA
Assay: Antisense activity by RT-qPCR, Malat1, A431 cells
Assay type: cell-based
Method: A431 cells were grown at 10,000 cells per well and pre-treated with a variety of growth factors to determine if the addition of exogenous growth factors affects antisense activity or uptake of modified antisense oligonucleotides in a cell. The growth factors used were EGF, insulin growth factor (IGF), transforming growth factor (TGF), […] (VEGF), hepatocyte growth factor (HGF), platelet growth factor (PGF) and fibroblasts growth factor (FGF). To test antisense activity, cells were treated for 4 hours with a growth factor or vehicle alone, and then treated with compound no. 25690 (complementary to Drosha), compound no. 395254 (complementary to Malat1), or vehicle alone. RNA was isolated from the cells and Drosha or Malat1 RNA levels were measured by RT-qPCR. Human primer probe set 13816 (forward sequence […], designated herein as SEQ ID NO: 3; reverse sequence […], designated herein as SEQ ID NO: 4; probe sequence […], designated herein as SEQ ID NO: 5) was used to measure Drosha mRNA levels and primer probe set RTS2736 (forward sequence […], designated herein as SEQ ID NO: 6; reverse sequence […], designated herein as SEQ ID NO: 7; probe sequence TGCCACATCGCCACCCCGT, designated herein as SEQ ID NO: 8) was used to measure Malat1 RNA levels. Drosha and Malat1 RNA levels were normalized to total RNA content, as measured by RIBOGREEN®. Results are presented in the tables below as normalized RNA levels, relative to untreated control cells.
A431 cells were treated with EGF or TGF at 200 ng/mL in the presence or absence of 1 μM of the EGFR tyrosine kinase inhibitor PD174265. The cells were then treated with compound no. 25690 or compound no. 395254 as in Example 8. Total RNA was isolated and analyzed by RT-qPCR, as in Example 8.
Following siRNA treatment, cells were treated with compound no. 25690 or compound no. 395254 in the presence or absence of EGF. 16 hours after treatment with a PS-ASO with or without EGF, cells were harvested, and RNA levels were analyzed via RT-qPCR as in Example 8.

## GGCATATGCAGATAATGTTC (sugars from the 5' end e5 d10 e5, all phosphorothioate, methylation of C not given here) [compound 395254]
2.0 nM, Control
  Malat1 RNA (% Control): 100.0 % Control
2.0 nM, Control Luciferase siRNA
  Malat1 RNA (% Control): 100.0 % Control
2.0 nM, Control Luciferase siRNA, Table 27
  Malat1 RNA (% Control): 100 % Control
2.0 nM, Control luciferase + EGF
  Malat1 RNA (% Control): 100 % Control
2.0 nM, Control, Table 21
  Malat1 RNA (% Control): 100.0 % Control
2.0 nM, EGF
  Malat1 RNA (% Control): 100.0 % Control
2.0 nM, EGFR siRNA-1
  Malat1 RNA (% Control): 100.0 % Control
2.0 nM, EGFR siRNA-2
  Malat1 RNA (% Control): 100.0 % Control
2.0 nM, EGFR siRNA-2 + EGF
  Malat1 RNA (% Control): 100 % Control
2.0 nM, EGFR siRNA-2, Table 27
  Malat1 RNA (% Control): 100 % Control
2.0 nM, TGF
  Malat1 RNA (% Control): 100.0 % Control
2.0 nM, TGF+PD174265
  Malat1 RNA (% Control): 100.0 % Control
2.0 nM, TGF, Table 21
  Malat1 RNA (% Control): 100.0 % Control
3.9 nM, Control
  Malat1 RNA (% Control): 109.0 % Control
3.9 nM, Control Luciferase siRNA
  Malat1 RNA (% Control): 72.7 % Control
3.9 nM, Control Luciferase siRNA, Table 27
  Malat1 RNA (% Control): 110.2 % Control
3.9 nM, Control luciferase + EGF
  Malat1 RNA (% Control): 108.2 % Control
3.9 nM, Control, Table 21
  Malat1 RNA (% Control): 110.2 % Control
3.9 nM, EGF
  Malat1 RNA (% Control): 76.0 % Control
3.9 nM, EGFR siRNA-1
  Malat1 RNA (% Control): 108.4 % Control
3.9 nM, EGFR siRNA-2
  Malat1 RNA (% Control): 90.4 % Control
3.9 nM, EGFR siRNA-2 + EGF
  Malat1 RNA (% Control): 108.2 % Control
3.9 nM, EGFR siRNA-2, Table 27
  Malat1 RNA (% Control): 105.2 % Control
3.9 nM, TGF
  Malat1 RNA (% Control): 99.9 % Control
3.9 nM, TGF+PD174265
  Malat1 RNA (% Control): 108.2 % Control
3.9 nM, TGF, Table 21
  Malat1 RNA (% Control): 105.2 % Control
7.8 nM, Control
  Malat1 RNA (% Control): 127.0 % Control
7.8 nM, Control Luciferase siRNA
  Malat1 RNA (% Control): 81.9 % Control
7.8 nM, Control Luciferase siRNA, Table 27
  Malat1 RNA (% Control): 99.3 % Control
7.8 nM, Control luciferase + EGF
  Malat1 RNA (% Control): 91.2 % Control
7.8 nM, Control, Table 21
  Malat1 RNA (% Control): 99.3 % Control
7.8 nM, EGF
  Malat1 RNA (% Control): 98.1 % Control
7.8 nM, EGFR siRNA-1
  Malat1 RNA (% Control): 103.1 % Control
7.8 nM, EGFR siRNA-2
  Malat1 RNA (% Control): 85.1 % Control
7.8 nM, EGFR siRNA-2 + EGF
  Malat1 RNA (% Control): 99.2 % Control
7.8 nM, EGFR siRNA-2, Table 27
  Malat1 RNA (% Control): 105.2 % Control
7.8 nM, TGF
  Malat1 RNA (% Control): 101.8 % Control
7.8 nM, TGF+PD174265
  Malat1 RNA (% Control): 91.2 % Control
7.8 nM, TGF, Table 21
  Malat1 RNA (% Control): 105.2 % Control
15.6 nM, Control
  Malat1 RNA (% Control): 125.6 % Control
15.6 nM, Control Luciferase siRNA
  Malat1 RNA (% Control): 61.0 % Control
15.6 nM, Control Luciferase siRNA, Table 27
  Malat1 RNA (% Control): 87.2 % Control
15.6 nM, Control luciferase + EGF
  Malat1 RNA (% Control): 67.2 % Control
15.6 nM, Control, Table 21
  Malat1 RNA (% Control): 77.2 % Control
15.6 nM, EGF
  Malat1 RNA (% Control): 96.4 % Control
15.6 nM, EGFR siRNA-1
  Malat1 RNA (% Control): 98.4 % Control
15.6 nM, EGFR siRNA-2
  Malat1 RNA (% Control): 82.5 % Control
15.6 nM, EGFR siRNA-2 + EGF
  Malat1 RNA (% Control): 99.2 % Control
15.6 nM, EGFR siRNA-2, Table 27
  Malat1 RNA (% Control): 97.2 % Control
15.6 nM, TGF
  Malat1 RNA (% Control): 93.2 % Control
15.6 nM, TGF+PD174265
  Malat1 RNA (% Control): 77.2 % Control
15.6 nM, TGF, Table 21
  Malat1 RNA (% Control): 107.2 % Control
31.3 nM, Control
  Malat1 RNA (% Control): 120.2 % Control
31.3 nM, Control Luciferase siRNA
  Malat1 RNA (% Control): 47.0 % Control
31.3 nM, Control Luciferase siRNA, Table 27
  Malat1 RNA (% Control): 76.3 % Control
31.3 nM, Control luciferase + EGF
  Malat1 RNA (% Control): 58.7 % Control
31.3 nM, Control, Table 21
  Malat1 RNA (% Control): 66.3 % Control
31.3 nM, EGF
  Malat1 RNA (% Control): 111.9 % Control
31.3 nM, EGFR siRNA-1
  Malat1 RNA (% Control): 67.4 % Control
31.3 nM, EGFR siRNA-2
  Malat1 RNA (% Control): 57.7 % Control
31.3 nM, EGFR siRNA-2 + EGF
  Malat1 RNA (% Control): 114.0 % Control
31.3 nM, EGFR siRNA-2, Table 27
  Malat1 RNA (% Control): 95.9 % Control
31.3 nM, TGF
  Malat1 RNA (% Control): 109.8 % Control
31.3 nM, TGF+PD174265
  Malat1 RNA (% Control): 68.7 % Control
31.3 nM, TGF, Table 21
  Malat1 RNA (% Control): 55.9 % Control
62.5 nM, Control
  Malat1 RNA (% Control): 109.6 % Control
62.5 nM, Control Luciferase siRNA
  Malat1 RNA (% Control): 33.2 % Control
62.5 nM, Control Luciferase siRNA, Table 27
  Malat1 RNA (% Control): 67.2 % Control
62.5 nM, Control luciferase + EGF
  Malat1 RNA (% Control): 54.2 % Control
62.5 nM, Control, Table 21
  Malat1 RNA (% Control): 57.2 % Control
62.5 nM, EGF
  Malat1 RNA (% Control): 85.9 % Control
62.5 nM, EGFR siRNA-1
  Malat1 RNA (% Control): 45.0 % Control
62.5 nM, EGFR siRNA-2
  Malat1 RNA (% Control): 43.6 % Control
62.5 nM, EGFR siRNA-2 + EGF
  Malat1 RNA (% Control): 79.7 % Control
62.5 nM, EGFR siRNA-2, Table 27
  Malat1 RNA (% Control): 77.2 % Control
62.5 nM, TGF
  Malat1 RNA (% Control): 91.4 % Control
62.5 nM, TGF+PD174265
  Malat1 RNA (% Control): 54.2 % Control
62.5 nM, TGF, Table 21
  Malat1 RNA (% Control): 47.2 % Control
125 nM, Control
  Malat1 RNA (% Control): 131.6 % Control
125 nM, Control Luciferase siRNA
  Malat1 RNA (% Control): 18.9 % Control
125 nM, Control Luciferase siRNA, Table 27
  Malat1 RNA (% Control): 44 % Control
125 nM, Control luciferase + EGF
  Malat1 RNA (% Control): 37.0 % Control
125 nM, Control, Table 21
  Malat1 RNA (% Control): 44.0 % Control
125 nM, EGF
  Malat1 RNA (% Control): 62.3 % Control
125 nM, EGFR siRNA-1
  Malat1 RNA (% Control): 26.5 % Control
